Experimental data from ChEMBL document CHEMBL3714714, “Hepatocyte nuclear factor 4alpha modulator compounds” (2005).

Tests used:
[1] = target: T1, Hepatocyte nuclear factor 4-alpha (Homo sapiens, UniProt P41235); assay: Displacement of [3H]methyl4-[5,6,7,8-tetrahydro-5,5,8,8-tetramethyl-3-ethyloxy-2-naphthalenyl]benzoyl benzoate from HNF4alpha (unknown origin) by radioligand binding assay
T1 sequence (P41235 whole entry): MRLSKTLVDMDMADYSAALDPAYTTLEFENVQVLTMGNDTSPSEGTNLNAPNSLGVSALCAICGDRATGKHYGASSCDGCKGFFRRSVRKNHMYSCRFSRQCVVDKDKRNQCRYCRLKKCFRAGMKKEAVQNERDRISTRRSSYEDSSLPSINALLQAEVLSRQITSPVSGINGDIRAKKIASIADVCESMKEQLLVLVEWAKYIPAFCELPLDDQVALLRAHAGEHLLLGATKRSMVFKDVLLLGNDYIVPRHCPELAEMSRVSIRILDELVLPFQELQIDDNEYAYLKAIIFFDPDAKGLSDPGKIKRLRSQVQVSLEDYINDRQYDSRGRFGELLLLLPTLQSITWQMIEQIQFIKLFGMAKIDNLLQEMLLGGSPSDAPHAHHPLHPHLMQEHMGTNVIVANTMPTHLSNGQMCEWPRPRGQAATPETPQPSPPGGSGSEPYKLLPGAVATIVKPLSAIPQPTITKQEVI

[2] = target: T2, Retinoic acid receptor RXR-alpha (Homo sapiens, UniProt P19793); assay: Displacement of [3H]9-cis-retinoic acid from RXRalpha (unknown origin) by radioligand binding assay
T2 sequence (P19793 whole entry): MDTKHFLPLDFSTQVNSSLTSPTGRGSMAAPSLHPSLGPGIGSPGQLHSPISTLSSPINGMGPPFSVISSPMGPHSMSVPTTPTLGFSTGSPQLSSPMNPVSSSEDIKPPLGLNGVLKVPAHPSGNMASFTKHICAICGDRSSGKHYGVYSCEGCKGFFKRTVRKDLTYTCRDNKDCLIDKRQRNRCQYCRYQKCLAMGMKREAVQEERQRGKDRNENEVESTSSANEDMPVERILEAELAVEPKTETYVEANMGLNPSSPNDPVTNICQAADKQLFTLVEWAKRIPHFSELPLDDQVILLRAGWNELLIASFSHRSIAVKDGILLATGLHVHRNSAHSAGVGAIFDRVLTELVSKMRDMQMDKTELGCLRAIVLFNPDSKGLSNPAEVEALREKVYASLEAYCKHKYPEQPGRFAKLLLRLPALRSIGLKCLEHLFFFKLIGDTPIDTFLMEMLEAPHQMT

[3] = target: T3, Hepatocyte nuclear factor 4-alpha (Rattus norvegicus) (UniProt P22449); assay: Antagonist activity against rat HNF4alpha1 expressed in African green monkey CV1 cells assessed as reduction in endogenous agoinst-induced luciferase expression incubated for 24 hrs by firefly luciferase reporter gene assay relative to control; format: functional, cell-based; settings: CV-1
T3 sequence (whole entry): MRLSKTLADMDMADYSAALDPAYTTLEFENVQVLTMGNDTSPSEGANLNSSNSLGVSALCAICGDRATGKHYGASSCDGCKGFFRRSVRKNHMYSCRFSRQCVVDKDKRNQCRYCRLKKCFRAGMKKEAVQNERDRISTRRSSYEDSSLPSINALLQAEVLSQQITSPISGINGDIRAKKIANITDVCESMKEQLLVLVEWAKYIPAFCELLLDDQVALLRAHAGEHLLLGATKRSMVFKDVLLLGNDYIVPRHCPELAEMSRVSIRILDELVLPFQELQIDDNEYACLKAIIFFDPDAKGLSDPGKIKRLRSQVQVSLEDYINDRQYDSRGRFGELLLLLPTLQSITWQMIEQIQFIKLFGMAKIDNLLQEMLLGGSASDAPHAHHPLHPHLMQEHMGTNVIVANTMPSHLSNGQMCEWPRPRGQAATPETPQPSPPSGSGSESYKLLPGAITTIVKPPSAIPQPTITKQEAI

[4] = target: T4, Hepatocyte nuclear factor 4-alpha (Rattus norvegicus, UniProt P22449); assay: Antagonist activity against rat HNF4alpha1 expressed in African green monkey CV1 cells assessed as reduction in endogenous agoinst-induced luciferase expression incubated for 24 hrs by firefly luciferase reporter gene assay; format: functional, cell-based, CV-1
T4 sequence (P22449 whole entry): T3 sequence (whole entry)

[5] = target: T4, Hepatocyte nuclear factor 4-alpha; assay: Agonist activity at rat HNF4alpha1 expressed in African green monkey CV1 cells incubated for 24 hrs by firefly luciferase reporter gene assay; format: functional, cell-based, CV-1
[6] = target: T3, Hepatocyte nuclear factor 4-alpha (Rattus norvegicus); assay: Agonist activity at rat HNF4alpha1 expressed in African green monkey CV1 cells incubated for 24 hrs by firefly luciferase reporter gene assay relative to LG0100695; format: functional, cell-based; settings: CV-1

| SMILES | Ki [1] [nM] | Ki [2] [nM] | Efficacy [3] [%] | IC50 [4] [nM] | EC50 [5] [nM] | Efficacy [6] [%] |
| --- | --- | --- | --- | --- | --- | --- |
| CCCCCCO/N=C(\c1ccc(C(=O)O)cc1)c1cc2c(cc1OCC)C(C)(C)CCC2(C)C | 322 | 1900 | 120 | 1 | – | – |
| Cc1ccc(S(=O)(=O)Nc2c(C)c(Cc3ccc(C(=O)O)cc3)cc3c2C(C)(C)CCC3(C)C)cc1 | 5210 | > 30000 | 121 | 22 | – | – |
| CCOc1cc2c(cc1/C(=N/OCc1cccc(F)c1F)c1ccc(C(=O)O)cc1)C(C)(C)CCC2(C)C | 966 | > 30000 | 118 | 35 | – | – |
| Cc1cc2c(cc1C(OCc1ccccc1F)c1ccc(C(=O)O)cc1)C(C)(C)CCC2(C)C (stereo unspecified) | 580 | 5200 | 106 | 4 | – | – |
| CC1(C)CCC(C)(C)c2c1cc(C(=O)c1ccc(C(=O)O)cc1)c(OCC(F)F)c2[N+](=O)[O-] | 163 | > 10000 | – | – | 594 | 57 |
| Cc1cc2c(cc1C(OCc1ccc(SC(F)(F)F)cc1)c1ccc(C(=O)O)cc1)C(C)(C)CCC2(C)C (stereo unspecified) | 1190 | 3000 | – | – | – | – |
| CCOc1cc2c(cc1C(=O)c1ccc(C(=O)O)cc1)C(C)(C)CCO2 | 721 | 3000 | – | – | 2240 | 68 |
| COc1c(C(=O)c2ccc(C(=O)O)cc2)cc2c(c1C)N(C)CCC2(C)C | 4600 | > 30000 | – | – | 2850 | 42 |
| Cc1cc2c(cc1C(NCc1cccc(F)c1)c1ccc(C(=O)O)cc1)C(C)(C)CCC2(C)C (stereo unspecified) | 1400 | 6500 | – | – | – | – |
| CC1(C)CCC(C)(C)c2cc(/C(=N\Nc3ccccc3)c3ccc(C(=O)O)cc3)ccc21 | 514 | > 10000 | 100 | 103 | – | – |
| CCCCOC(c1ccc(C(=O)O)cc1)c1cc2c(cc1OCC)C(C)(C)CCC2(C)C (stereo unspecified) | 339 | 2700 | 108 | 4 | – | – |
| CCOc1cc2c(cc1C(=O)c1ccc(C(=O)C(=O)O)cc1)C(C)(C)CCC2(C)C | 364 | > 10000 | – | – | 1140 | 95 |
| CC1(C)CCC(C)(C)c2cc(C(=O)c3ccc(C(=O)O)cc3)c(OCC(F)(F)F)cc21 | 96 | 1500 | – | – | 2190 | 33 |
| Cc1cc2c(c(O)c1C(=O)c1ccc(C(=O)O)cc1)C(C)(C)CCC2(C)C | 710 | > 30000 | – | – | 2640 | 103 |
| CCOc1cc2c(cc1/C(=N/OCCC(C)C)c1ccc(C(=O)O)cc1)C(C)(C)CCC2(C)C | 244 | 4600 | 119 | 3 | – | – |
| CCOc1cc2c(cc1C(=O)c1ccc(C(=O)O)cc1)C(C)(C)CCC2(C)C | 110 | 824 | – | – | 263 | 100 |
| Cc1ccc(C)c(N/N=C(\c2ccc(C(=O)O)cc2)c2cc3c(cc2C)C(C)(C)CCC3(C)C)c1 | 1010 | > 30000 | 103 | 19 | – | – |
| Cc1c(C(=O)c2ccc(C(=O)O)cc2)cc2c(c1[N+](=O)[O-])C(C)(C)CCC2(C)C | 165 | > 5000 | – | – | 2230 | 43 |
| Cc1c(C(=O)c2ccc(C(=O)O)cc2)cc2c(c1[N+](=O)[O-])OCCC2(C)C | 2200 | > 30000 | – | – | 2950 | 88 |
| CCOc1cc2c(cc1/C(=N/Nc1cc(F)ccc1F)c1ccc(C(=O)O)cc1)C(C)(C)CCC2(C)C | 215 | 3000 | 110 | 1 | – | – |
